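The compound was tested at five concentrations on cells cultured in 96-well plates, with a 48-hour exposure period. Definition used: TGI = concentration required for complete inhibition of growth.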

The first experiment deals with DU-145 prostate. Put plainly: NCI anticancer screen, dose series, 48 h.
`COc1ccc2nc(N/N=C/c3sccc3C)cc(C)c2c1` registered a TGI of 44.5 µM.

Consider `C=C(C)C1CCC(C(=O)O)CC1` (stereo not drawn), for which the TGI was over 100 µM.

For the compound `O=c1[nH]c2cc(C(F)(F)F)ccc2nc1C(F)(F)F`, the TGI was over 100 µM.

`Cc1ccc(C(=O)N/N=C(\N=Nc2cccc([N+](=O)[O-])c2)c2ccc(N(CCC#N)CCC#N)cc2C)cc1` gave a TGI of over 100 µM.

In the case of `O=C1/C(=C\c2ccc([N+](=O)[O-])cc2)N(S(=O)(=O)c2ccccc2)c2ncccc21`, the TGI is 75.4 µM.

Consider `O=C(O)c1c2c(cc3c1CC(Cc1ccccc1)C3=O)CCC2` (stereo not drawn), for which the TGI is over 100 µM.

`OC(CC1CCCCN1)c1ccc2c(c1)oc1ccccc12` (stereo not drawn) displayed a TGI of over 100 µM.

The compound `C=CC[C@]1(/C=N/O)CN(S(=O)(=O)CC[Si](C)(C)C)C[C@H]2CC=CC[C@H]21` came in with a TGI of 46.9 µM.

For the compound `Nc1cc([N+](=O)[O-])ccc1C(=O)N1CCC[C@H]1CO`, the TGI is over 100 µM.

Regarding `O=C1OC(CCCN2CCCCC2)(c2ccccc2)CC12CCCC2` (stereo not drawn), the TGI was over 100 µM.

Take `NC(=Nc1ccccc1Cl)c1ccccc1N`: the TGI is over 100 µM.

`O=C1NC(=S)N/C1=C\c1cccs1`: the TGI is over 100 µM.

Take `CSc1c(C(=O)Nc2ccccc2)c(N)n(N)c(=O)c1C#N`: the TGI is over 100 µM.

Turning to `COC(=O)C1=C(OC(=O)/C(=C/c2ccccc2)c2ccc(Cl)cc2Cl)C(C(=O)OC)[C@@]2(O)[C@@H](C(=O)OC)[C@H](C)C[C@@H]1[C@@H]2C(=O)OC` (stereo partly drawn), the TGI was over 100 µM.

In the case of `C[C@@H](C(=O)O)N1C(c2ccco2)=C(/C(C=O)=C\c2ccco2)C(=O)/C1=C\c1ccco1`, the TGI is over 100 µM.

On to `O=C(/C=C/c1ccc(O)c(O)c1)OCC(OC(=O)/C=C/c1ccc(O)c(O)c1)C(=O)O` (stereo not drawn), for which the TGI is over 100 µM.

The compound `Cc1cc(C)nc(NS(=O)(=O)c2ccc(Nc3c4ccccc4nc4ccc(C(=O)Nc5ccc(S(N)(=O)=O)cc5)cc34)cc2)n1` displayed a TGI of over 100 µM.

Turning to `CCOC(=O)/C=C(\C(=O)OCC)n1cc(C)c(=O)n(Cc2cn(CCCCOC(C)=O)nn2)c1=O`, the TGI was determined as 37.2 µM.

Turning to `O=C1C2=Cc3ccccc3OC2(O)Oc2cc3ccccc3cc21` (stereo not drawn), the TGI was over 100 µM.

The subject of another experiment is IGROV1 ovarian. Put plainly: NCI anticancer screen, dose series, 48 h.
Consider `CC1(C)OCN(c2ccc(N3CCOCC3)cc2)Cn2c1nc1ccccc12`, for which the TGI was over 100 µM.

As to `Cc1cc(C)c2c(=O)cc(-c3cccc4ccccc34)[nH]c2n1`, the TGI was over 84.5 µM.

Take `COc1ccc2nc(N/N=C/c3sccc3C)cc(C)c2c1`: the TGI was determined as 32.4 µM.

In turn, `C=C(C)C1CCC(C(=O)O)CC1` (stereo not drawn) displayed a TGI of over 100 µM.

Compound `O=c1[nH]c2cc(C(F)(F)F)ccc2nc1C(F)(F)F` gave a TGI of over 100 µM.

`Cc1ccc(C(=O)N/N=C(\N=Nc2cccc([N+](=O)[O-])c2)c2ccc(N(CCC#N)CCC#N)cc2C)cc1` showed a TGI of over 100 µM.

Compound `O=C1/C(=C\c2ccc([N+](=O)[O-])cc2)N(S(=O)(=O)c2ccccc2)c2ncccc21` came in with a TGI of 36.8 µM.

In turn, `O=C(O)c1c2c(cc3c1CC(Cc1ccccc1)C3=O)CCC2` (stereo not drawn) came in with a TGI of over 100 µM.

With `OC(CC1CCCCN1)c1ccc2c(c1)oc1ccccc12` (stereo not drawn), the TGI is over 100 µM.

As for `C=CC[C@]1(/C=N/O)CN(S(=O)(=O)CC[Si](C)(C)C)C[C@H]2CC=CC[C@H]21`, the TGI was determined as 34.8 µM.

Turning to `Nc1cc([N+](=O)[O-])ccc1C(=O)N1CCC[C@H]1CO`, the TGI is over 100 µM.

`O=C1OC(CCCN2CCCCC2)(c2ccccc2)CC12CCCC2` (stereo not drawn): the TGI was over 100 µM.

Compound `NC(=Nc1ccccc1Cl)c1ccccc1N` had a TGI of over 100 µM.

The compound `O=C1NC(=S)N/C1=C\c1cccs1` had a TGI of over 100 µM.

In turn, `CCN1C[C@]2(C)CC[C@H](O)C34C1C(C[C@@H]32)[C@@]1(O)CC[C@H]2C[C@@H]4[C@@H]1[C@H]2O` registered a TGI of over 100 µM.

`CSc1c(C(=O)Nc2ccccc2)c(N)n(N)c(=O)c1C#N` yielded a TGI of over 100 µM.

`COC(=O)C1=C(OC(=O)/C(=C/c2ccccc2)c2ccc(Cl)cc2Cl)C(C(=O)OC)[C@@]2(O)[C@@H](C(=O)OC)[C@H](C)C[C@@H]1[C@@H]2C(=O)OC` (stereo partly drawn): the TGI was over 100 µM.

In the case of `C[C@@H](C(=O)O)N1C(c2ccco2)=C(/C(C=O)=C\c2ccco2)C(=O)/C1=C\c1ccco1`, the TGI was over 100 µM.

As for `O=C(/C=C/c1ccc(O)c(O)c1)OCC(OC(=O)/C=C/c1ccc(O)c(O)c1)C(=O)O` (stereo not drawn), the TGI was over 100 µM.

The compound `Cc1cc(C)nc(NS(=O)(=O)c2ccc(Nc3c4ccccc4nc4ccc(C(=O)Nc5ccc(S(N)(=O)=O)cc5)cc34)cc2)n1` returned a TGI of over 100 µM.

In turn, `CCOC(=O)/C=C(\C(=O)OCC)n1cc(C)c(=O)n(Cc2cn(CCCCOC(C)=O)nn2)c1=O` returned a TGI of 27.5 µM.

`O=C1C2=Cc3ccccc3OC2(O)Oc2cc3ccccc3cc21` (stereo not drawn) returned a TGI of over 100 µM.

Consider `CC1(c2cccc(C3CC4(CCC3=O)OCCCCO4)c2)OCCO1` (stereo not drawn), for which the TGI was over 100 µM.

Another experiment concerns K-562 leukemia. In words: NCI anticancer screen, dose series, 48 h.
`CC1(C)OCN(c2ccc(N3CCOCC3)cc2)Cn2c1nc1ccccc12` showed a TGI of over 100 µM.

The compound `Cc1cc(C)c2c(=O)cc(-c3cccc4ccccc34)[nH]c2n1` had a TGI of over 100 µM.

In the case of `COc1ccc2nc(N/N=C/c3sccc3C)cc(C)c2c1`, the TGI is over 100 µM.

As for `C=C(C)C1CCC(C(=O)O)CC1` (stereo not drawn), the TGI was over 100 µM.

`O=c1[nH]c2cc(C(F)(F)F)ccc2nc1C(F)(F)F` displayed a TGI of over 100 µM.

Compound `Cc1ccc(C(=O)N/N=C(\N=Nc2cccc([N+](=O)[O-])c2)c2ccc(N(CCC#N)CCC#N)cc2C)cc1` yielded a TGI of over 100 µM.

Consider `O=C1/C(=C\c2ccc([N+](=O)[O-])cc2)N(S(=O)(=O)c2ccccc2)c2ncccc21`, for which the TGI is over 100 µM.

In turn, `O=C(O)c1c2c(cc3c1CC(Cc1ccccc1)C3=O)CCC2` (stereo not drawn) had a TGI of over 100 µM.

In turn, `OC(CC1CCCCN1)c1ccc2c(c1)oc1ccccc12` (stereo not drawn) returned a TGI of over 100 µM.

In the case of `C=CC[C@]1(/C=N/O)CN(S(=O)(=O)CC[Si](C)(C)C)C[C@H]2CC=CC[C@H]21`, the TGI stood at 67.5 µM.

With `Nc1cc([N+](=O)[O-])ccc1C(=O)N1CCC[C@H]1CO`, the TGI is over 100 µM.

In turn, `O=C1OC(CCCN2CCCCC2)(c2ccccc2)CC12CCCC2` (stereo not drawn) registered a TGI of over 96.3 µM.

`NC(=Nc1ccccc1Cl)c1ccccc1N` had a TGI of over 100 µM.

The compound `O=C1NC(=S)N/C1=C\c1cccs1` had a TGI of over 100 µM.

`CSc1c(C(=O)Nc2ccccc2)c(N)n(N)c(=O)c1C#N` displayed a TGI of over 100 µM.

As to `COC(=O)C1=C(OC(=O)/C(=C/c2ccccc2)c2ccc(Cl)cc2Cl)C(C(=O)OC)[C@@]2(O)[C@@H](C(=O)OC)[C@H](C)C[C@@H]1[C@@H]2C(=O)OC` (stereo partly drawn), the TGI is over 100 µM.

Regarding `C[C@@H](C(=O)O)N1C(c2ccco2)=C(/C(C=O)=C\c2ccco2)C(=O)/C1=C\c1ccco1`, the TGI was over 100 µM.

Consider `O=C(/C=C/c1ccc(O)c(O)c1)OCC(OC(=O)/C=C/c1ccc(O)c(O)c1)C(=O)O` (stereo not drawn), for which the TGI was over 100 µM.

Turning to `Cc1cc(C)nc(NS(=O)(=O)c2ccc(Nc3c4ccccc4nc4ccc(C(=O)Nc5ccc(S(N)(=O)=O)cc5)cc34)cc2)n1`, the TGI is over 100 µM.

Turning to `CCOC(=O)/C=C(\C(=O)OCC)n1cc(C)c(=O)n(Cc2cn(CCCCOC(C)=O)nn2)c1=O`, the TGI was determined as 9.01 µM.

With `O=C1C2=Cc3ccccc3OC2(O)Oc2cc3ccccc3cc21` (stereo not drawn), the TGI was over 100 µM.

In the case of `CC1(c2cccc(C3CC4(CCC3=O)OCCCCO4)c2)OCCO1` (stereo not drawn), the TGI is over 100 µM.

For the next experiment, the system named is KM20L2 colon. In words: NCI anticancer screen, dose series, 48 h.
Compound `CC1(C)OCN(c2ccc(N3CCOCC3)cc2)Cn2c1nc1ccccc12` had a TGI of over 100 µM.

`CCN1C[C@]2(C)CC[C@H](O)C34C1C(C[C@@H]32)[C@@]1(O)CC[C@H]2C[C@@H]4[C@@H]1[C@H]2O` gave a TGI of over 100 µM.

In turn, `CC1(c2cccc(C3CC4(CCC3=O)OCCCCO4)c2)OCCO1` (stereo not drawn) gave a TGI of over 100 µM.

The subject of another experiment is MCF7 breast. In words: NCI anticancer screen, dose series, 48 h.
In turn, `Cc1cc(C)c2c(=O)cc(-c3cccc4ccccc34)[nH]c2n1` came in with a TGI of over 100 µM.
